Patent publication US12594277B2, “Macrocyclic ULK1/2 inhibitors” (SALK INSTITUTE FOR BIOLOGICAL STUDIES, priority 2020, dated 2026)

Key:
[1] = biological target: T1, recombinant human ULK1 protein (1-649) (Homo sapiens, UniProt O75385); test: ULK1 inhibition assay (ADP-Glo); format: biochemical; settings: 2 ug/mL ULK1, 80 ug/mL myelin basic protein, 25 uM ATP, assessed after one hour
T1 construct: recombinant human ULK1 protein (1-649, SignalChem #U01-11G); purchased SignalChem U01-11G
T1 sequence (O75385 1-649): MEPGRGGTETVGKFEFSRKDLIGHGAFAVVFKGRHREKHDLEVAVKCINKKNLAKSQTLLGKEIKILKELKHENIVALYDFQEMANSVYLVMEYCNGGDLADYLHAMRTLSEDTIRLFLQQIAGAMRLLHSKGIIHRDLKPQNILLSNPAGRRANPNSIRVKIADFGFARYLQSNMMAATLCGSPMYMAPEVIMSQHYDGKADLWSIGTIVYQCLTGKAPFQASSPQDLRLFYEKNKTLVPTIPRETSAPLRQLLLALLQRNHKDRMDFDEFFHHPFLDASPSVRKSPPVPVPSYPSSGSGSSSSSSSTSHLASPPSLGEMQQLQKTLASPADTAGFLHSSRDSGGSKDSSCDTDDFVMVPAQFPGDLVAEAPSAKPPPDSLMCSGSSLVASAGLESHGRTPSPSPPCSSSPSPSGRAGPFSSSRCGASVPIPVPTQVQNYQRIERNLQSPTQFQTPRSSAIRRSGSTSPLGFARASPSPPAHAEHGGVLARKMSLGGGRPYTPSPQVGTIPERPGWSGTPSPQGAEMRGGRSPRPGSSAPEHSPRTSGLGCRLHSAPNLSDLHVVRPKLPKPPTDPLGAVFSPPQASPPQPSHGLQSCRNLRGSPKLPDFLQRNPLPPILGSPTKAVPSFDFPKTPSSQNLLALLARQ
Experimental: IC50s measured by ADP-Glo assay are represented nM, with A representing IC50<20 nM, B representing IC50>20 nM. NT indicates the compound was not tested. ULK1 inhibition assays were performed in a 5 uL reaction volume containing 2 ug/mL recombinant human ULK1 protein (1-649, SignalChem #U01-11G) and 80 ug/mL myelin basic protein (MBP, Sigma-Aldrich #M1891) in the presence of 25 uM ATP (Sigma-Aldrich A7699). ULK 1 inhibition was assessed after one hour. Compounds were tested in triplicate in a 16-dose IC50 mode with 3-fold serial dilution and a starting dose of 30 uM. Staurosporine, a non-selective protein kinase inhibitor, was used in the assay as a positive control. Three separate experiments were carried out.

[2] = biological target: T2, NanoLuc-ULK1 fusion in HEK293T cells (Homo sapiens, UniProt O75385); test: ULK1 NanoBRET assay; format: cell-based; settings: HEK293T transfected with NanoLuc-ULK1 Fusion Vector, Tracer K-5, 2 h incubation
T2 construct: host or cells: HEK293T
T2 sequence (O75385 1-1050): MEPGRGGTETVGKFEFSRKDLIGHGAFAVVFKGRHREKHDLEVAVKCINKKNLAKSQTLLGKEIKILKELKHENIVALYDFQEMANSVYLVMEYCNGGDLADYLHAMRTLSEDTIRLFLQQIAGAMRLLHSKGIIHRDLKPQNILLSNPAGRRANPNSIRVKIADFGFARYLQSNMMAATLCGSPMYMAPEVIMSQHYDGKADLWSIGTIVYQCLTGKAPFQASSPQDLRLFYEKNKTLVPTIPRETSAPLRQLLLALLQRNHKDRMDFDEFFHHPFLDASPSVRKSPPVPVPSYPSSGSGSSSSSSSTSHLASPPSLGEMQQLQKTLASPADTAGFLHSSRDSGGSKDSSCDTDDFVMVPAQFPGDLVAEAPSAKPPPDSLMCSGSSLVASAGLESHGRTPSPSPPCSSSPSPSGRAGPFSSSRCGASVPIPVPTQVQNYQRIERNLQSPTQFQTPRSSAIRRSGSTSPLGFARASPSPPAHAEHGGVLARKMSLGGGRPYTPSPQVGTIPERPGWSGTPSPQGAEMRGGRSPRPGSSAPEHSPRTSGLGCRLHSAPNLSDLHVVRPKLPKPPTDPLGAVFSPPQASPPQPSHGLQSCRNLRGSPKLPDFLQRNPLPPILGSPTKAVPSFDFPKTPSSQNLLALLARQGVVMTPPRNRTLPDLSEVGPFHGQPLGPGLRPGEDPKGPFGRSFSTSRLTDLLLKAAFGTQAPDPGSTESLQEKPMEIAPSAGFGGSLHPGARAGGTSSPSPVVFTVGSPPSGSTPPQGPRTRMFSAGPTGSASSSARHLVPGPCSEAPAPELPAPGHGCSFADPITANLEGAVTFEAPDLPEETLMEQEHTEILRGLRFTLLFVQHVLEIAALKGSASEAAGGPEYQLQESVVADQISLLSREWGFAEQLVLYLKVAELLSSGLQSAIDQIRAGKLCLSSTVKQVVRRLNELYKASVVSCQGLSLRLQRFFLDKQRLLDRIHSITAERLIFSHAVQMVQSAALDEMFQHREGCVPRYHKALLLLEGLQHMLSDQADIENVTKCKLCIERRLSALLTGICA
Experimental: IC50s were also measured by ULK1 NanoBRET assay according to the following protocol: Human embryonic kidney cells (HEK293T) were transfected with NanoLuc®-ULK1 Fusion Vector (Promega #NV2211) using jetPRIME transfection reagent (Polyplus Transfection #114-15). Following 24 h, cells were trypsinized and resuspended in Opti-MEM® I (1×), Reduced Serum Medium (Gibco, #11058-021). Approximately, 7,000 cells per well (in 34 μL total volume) were replated into non-binding surface 384 well plates. Complete NanoBRET 20× Tracer K-5 reagent was prepared according to the manufacturer's directions and 2 μL were added to each well of the 384 plate (assay plate). The assay plate was mixed on an orbital shaker for 15 seconds at 700 rpm. Compounds were serially diluted at 200× final concentration in […], then diluted to 10× final concentration in assay media (Opti-MEM® I, Reduced Serum Medium). Next, 4 μL 10× test compounds were added to each well of the assay plate, followed by mixing at 700 rpm for 15 seconds. The assay plate was incubated for 2 h in a 37 C incubator with […] and then equilibrated to RT for 15 min. The 3× Complete Substrate plus Inhibitor Solution was prepared according to the manufacturer's directions with a concentration of Extracellular NanoLuc® Inhibitor of 60 μM to be used at a working concentration of 20 μM. The 3× Complete Substrate plus Inhibitor Solution was mixed and 20 μL per well was added to the assay plate and incubated at RT for 2-3 min. Donor emission wavelength (450 nm) and acceptor emission wavelength (610 nm) were measured using an assay compatible luminometer (see manufacturer's specifications).

Row | Compound | IC50 [1] | IC50 [2]
1 | CNC(=O)c1cc2ccc1Nc1nc(ncc1C(F)(F)F)Nc1ccc(c(OC)c1)OCCCCCO2 [Compound 1, 1^3-Methoxy-N-methyl-3^5-(trifluoromethyl)-6,12-dioxa-2,4-diaza-3(2,4)-pyrimidina-1,5(1,4)-dibenzenacyclododecaphane-5^2-carboxamide] | < 20 nM | > 1000 nM
2 | C=CCCOc1ccc(Nc2nc(Nc3ccc(OCC=C)c(OC)c3)ncc2C(F)(F)F)c(C(=O)NC)c1 [Compound 2, 2-((2-((4-(Allyloxy)-3-methoxyphenyl)amino)-5-(trifluoromethyl)pyrimidin-4-yl)amino)-5-(but-3-en-1-yloxy)-N-methylbenzamide] | > 20 nM | 
3 | CNC(=O)c1cc2ccc1Nc1nc(ncc1C(F)(F)F)Nc1ccc(c(OC)c1)OC/C=C/CCO2 [Compound 3, (E)-1^3-methoxy-N-methyl-3^5-(trifluoromethyl)-6,12-dioxa-2,4-diaza-3(2,4)-pyrimidina-1,5(1,4)-dibenzenacyclododecaphan-9-ene-5^2-carboxamide] | > 20 nM | < 1000 nM
4 | CNC(=O)c1cc2ccc1Nc1nc(ncc1C(F)(F)F)Nc1ccc(c(OC)c1)OC/C=C\CCO2 [Compound 4, (Z)-1^3-methoxy-N-methyl-3^5-(trifluoromethyl)-6,12-dioxa-2,4-diaza-3(2,4)-pyrimidina-1,5(1,4)-dibenzenacyclododecaphan-9-ene-5^2-carboxamide] | > 20 nM | < 1000 nM
5 | C=CCCCOc1ccc(Nc2nc(Nc3ccc(OCC=C)c(OC)c3)ncc2C(F)(F)F)c(C(=O)NC)c1 [Compound 5, 2-((2-((4-(Allyloxy)-3-methoxyphenyl)amino)-5-(trifluoromethyl)pyrimidin-4-yl)amino)-N-methyl-5-(pent-4-en-1-yloxy)benzamide] | > 20 nM | > 1000 nM
6 | CNC(=O)c1cc2ccc1Nc1nc(ncc1C(F)(F)F)Nc1ccc(c(OC)c1)OC/C=C/CCCO2 [Compound 6, (E/Z)-1^3-Methoxy-N-methyl-3^5-(trifluoromethyl)-6,13-dioxa-2,4-diaza-3(2,4)-pyrimidina-1,5(1,4)-dibenzenacyclotridecaphan-10-ene-5^2-carboxamide] | < 20 nM | < 1000 nM
7 | CNC(=O)c1cc2ccc1Nc1nc(ncc1C(F)(F)F)Nc1ccc(c(OC)c1)OCCCCCCO2 [Compound 7, 1^3-Methoxy-N-methyl-3^5-(trifluoromethyl)-6,13-dioxa-2,4-diaza-3(2,4)-pyrimidina-1,5(1,4)-dibenzenacyclotridecaphane-5^2-carboxamide] | < 20 nM | 
8 | C=CCCOc1ccc(Nc2nc(Nc3ccc(OC)c(OCC=C)c3)ncc2C(F)(F)F)c(C(=O)NC)c1 [Compound 8, 2-((2-((3-(Allyloxy)-4-methoxyphenyl)amino)-5-(trifluoromethyl)pyrimidin-4-yl)amino)-5-(but-3-en-1-yloxy)-N-methylbenzamide] | < 20 nM | 
9 | CNC(=O)c1cc2ccc1Nc1nc(ncc1C(F)(F)F)Nc1ccc(OC)c(c1)OC/C=C/CCO2 [Compound 9, (E/Z)-1^4-Methoxy-N-methyl-3^5-(trifluoromethyl)-6,12-dioxa-2,4-diaza-3(2,4)-pyrimidina-1(1,3),5(1,4)-dibenzenacyclododecaphan-9-ene-5^2-carboxamide] | < 20 nM | < 1000 nM
10 | CNC(=O)c1cc2ccc1Nc1nc(ncc1C(F)(F)F)Nc1ccc(OC)c(c1)OCCCCCO2 [Compound 10, 1^4-Methoxy-N-methyl-3^5-(trifluoromethyl)-6,12-dioxa-2,4-diaza-3(2,4)-pyrimidina-1(1,3), 5(1,4)-dibenzenacyclododecaphane-5^2-carboxamide] | < 20 nM | > 1000 nM
11 | C=CCCOc1ccc(Nc2nc(Nc3ccc(OCC=C)c(OC)c3)ncc2Br)c(C(=O)NC)c1 [Compound 11] | > 20 nM | 
12 | CNC(=O)c1ccc2cc1Nc1nc(ncc1C(F)(F)F)Nc1ccc(OC)c(c1)OC/C=C\CCCO2 [Compound 12, (E)-1^4-methoxy-N-methyl-35-(trifluoromethyl)-6,13-dioxa-2,4-diaza-3(2,4)-pyrimidina-1,5(1,3)-dibenzenacyclotridecaphan-10-ene-5^6-carboxamide] | > 20 nM | > 1000 nM
13 | CNC(=O)c1ccc2cc1Nc1nc(ncc1C(F)(F)F)Nc1ccc(OC)c(c1)OC/C=C/CCCO2 [Compound 13, (Z)-1^4-methoxy-N-methyl-35-(trifluoromethyl)-6,13-dioxa-2,4-diaza-3(2,4)-pyrimidina-1,5(1,3)-dibenzenacyclotridecaphan-10-ene-5^6-carboxamide] | > 20 nM | > 1000 nM
14 | CNC(=O)c1ccc2cc1Nc1nc(ncc1C(F)(F)F)Nc1ccc(OC)c(c1)OCCCCCCO2 [Compound 14, 1^4-Methoxy-N-methyl-3^5-(trifluoromethyl)-6,13-dioxa-2,4-diaza-3(2,4)-pyrimidina-1,5(1,3)-dibenzenacyclotridecaphane-5^6-carboxamide] | > 20 nM | > 1000 nM
15 | CNC(=O)c1ccc2cc1Nc1nc(ncc1C(F)(F)F)Nc1ccc(c(OC)c1)OC/C=C/CCCO2 [Compound 15, (E)-5^3-methoxy-N-methyl-3^5-(trifluoromethyl)-6,13-dioxa-2,4-diaza-3(4,2)-pyrimidina-1(1,3),5(1,4)-dibenzenacyclotridecaphan-8-ene-1^6-carboxamide] | > 20 nM | > 1000 nM
16 | CNC(=O)c1ccc2cc1Nc1nc(ncc1C(F)(F)F)Nc1ccc(c(OC)c1)OC/C=C\CCCO2 [Compound 16, (Z)-5^3-methoxy-N-methyl-3^5-(trifluoromethyl)-6,13-dioxa-2,4-diaza-3(4,2)-pyrimidina-1(1,3),5(1,4)-dibenzenacyclotridecaphan-8-ene-1^6-carboxamide] | > 20 nM | > 1000 nM
